Results: US7670416B2, “Use of a combination of substances to prevent biofouling organisms” (I-Tech AB, priority 2005, dated 2010)

Experiments:
Barnacle cyprid larvae = assay: cyprid settling rate assay (barnacle biofouling); type: in vivo
From the text: The assays that are be used are the cyprid settling rate assay and the algae germination test.

Ulva = assay: algae spore germination test (Ulva biofouling);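 note: ulva spores exposed to test compound, then compound removed and spores germinated in culture medium under fluorescent light, 16 h light and 8 h dark, for 7 days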
Method: (§1) The efficacy of algicides is usually tested by a spore germination test. Algae are collected from the field and grown in the laboratory. […] The water with test compound is then removed and culture medium is added. The spores are left to germinate under fluorescent lamps (50 μm-2s-1 (PAR)), 16 h light, 8 h darkness, for 7 days in a culture medium, which is changed once a day.
(§2) All the different brands are tested in combination with Catemine 1 for efficacy against both barnacles and algae with the two compounds together or separate. The assays that are be used are the cyprid settling rate assay and the algae germination test.

Enteromorpha = assay: algae spore germination test (Enteromorpha biofouling); type: in vivo
Method: as §1, §2

barnacle cyprids = settings: reference (6); cited from earlier work
algae = settings: reference (6); target protein lacking within algae; cited from earlier work
[1] = 0.1 nM Catemine 1 alone (Table 2)
[2] = 0.1 nM Catemine 1 alone (Table 4)
[3] = 1 nM Catemine 1 alone (Table 2)
[4] = 1 nM Catemine 1 alone (Table 4)
[5] = 10 nM Catemine 1 alone (Table 2)
[6] = 10 nM Catemine 1 alone (Table 4)
[7] = 100 nM Catemine 1 alone (Table 2)
[8] = 100 nM Catemine 1 alone (Table 4)

SMILES: CCCCCCCCn1sc(Cl)c(Cl)c1=O [SeaNine, 4,5-dichloro-2-n-octyl-3(2H)-isothiazolone]
- Barnacle biofouling (% settlement) (Barnacle cyprid larvae; 0.1 nM SeaNine alone): 100%
- Barnacle biofouling (% settlement) (Barnacle cyprid larvae; 1 nM SeaNine alone): 50%
- Barnacle biofouling (% settlement) (Barnacle cyprid larvae; 10 nM SeaNine alone): 10%
- Barnacle biofouling (% settlement) (Barnacle cyprid larvae; 100 nM SeaNine alone): 0%
- Ulva biofouling (% survival) (Ulva; 0.1 nM SeaNine alone): 100%
- Ulva biofouling (% survival) (Ulva; 1 nM SeaNine alone): 50%
- Ulva biofouling (% survival) (Ulva; 10 nM SeaNine alone): 10%
- Ulva biofouling (% survival) (Ulva; 100 nM SeaNine alone): 0%

SMILES: CN(C)S(=O)(=O)N(SC(F)(Cl)Cl)c1ccccc1 [Dichlofluanid, N′-dimethyl-N-phenylsulphamide]
- Barnacle biofouling (% settlement) (Barnacle cyprid larvae; 0.1 μg/ml Dichlofluanid alone): 100%
- Barnacle biofouling (% settlement) (Barnacle cyprid larvae; 1 μg/ml Dichlofluanid alone): 50%
- Barnacle biofouling (% settlement) (Barnacle cyprid larvae; 10 μg/ml Dichlofluanid alone): 25%
- Barnacle biofouling (% settlement) (Barnacle cyprid larvae; 100 μg/ml Dichlofluanid alone): 0%
- Ulva biofouling (% survival) (Ulva; 0.1 μg/ml Dichlofluanid alone): 100%
- Ulva biofouling (% survival) (Ulva; 1 μg/ml Dichlofluanid alone): 90%
- Ulva biofouling (% survival) (Ulva; 10 μg/ml Dichlofluanid alone): 10%
- Ulva biofouling (% survival) (Ulva; 100 μg/ml Dichlofluanid alone): 0%

SMILES: CN(C)C(=O)Nc1ccc(Cl)c(Cl)c1 [Diuron, 3-(3,4-dichlorophenyl)-1,1-dimethylurea]
- Barnacle biofouling (% settlement) (Barnacle cyprid larvae; 0.1 μM Diuron alone): 100%
- Barnacle biofouling (% settlement) (Barnacle cyprid larvae; 1 μM Diuron alone): 100%
- Barnacle biofouling (% settlement) (Barnacle cyprid larvae; 10 μM Diuron alone): 100%
- Barnacle biofouling (% settlement) (Barnacle cyprid larvae; 100 μM Diuron alone): 100%
- Ulva biofouling (% survival) (Ulva; 0.1 μM Diuron alone): 100%
- Ulva biofouling (% survival) (Ulva; 1 μM Diuron alone): 90%
- Ulva biofouling (% survival) (Ulva; 10 μM Diuron alone): 50%
- Ulva biofouling (% survival) (Ulva; 100 μM Diuron alone): 0%

SMILES: CSc1nc(NC2CC2)nc(NC(C)(C)C)n1 [Irgarol, 2-methylthio-4-tert-butylamino-6-cyclopropylamino-s-triziane]
- Barnacle biofouling (% settlement) (Barnacle cyprid larvae; 0.1 nM Irgarol alone): 100%
- Barnacle biofouling (% settlement) (Barnacle cyprid larvae; 1 nM Irgarol alone): 100%
- Barnacle biofouling (% settlement) (Barnacle cyprid larvae; 10 nM Irgarol alone): 100%
- Barnacle biofouling (% settlement) (Barnacle cyprid larvae; 100 nM Irgarol alone): 100%
- Enteromorpha biofouling (% survival) (Enteromorpha; 0.1 nM Irgarol alone): 100%
- Enteromorpha biofouling (% survival) (Enteromorpha; 1 nM Irgarol alone): 100%
- Enteromorpha biofouling (% survival) (Enteromorpha; 10 nM Irgarol alone): 50%
- Enteromorpha biofouling (% survival) (Enteromorpha; 100 nM Irgarol alone): 0%

SMILES: Cc1cccc(C(C)c2c[nH]cn2)c1C (racemic) [Catemine 1, (+/−)-4-[1-(2,3-dimethylphenyl)ethyl]-1H-imidazole]
- Barnacle biofouling (% settlement) (Barnacle cyprid larvae; 0.1 nM Catemine 1 alone): 100%
- Barnacle biofouling (% settlement) (Barnacle cyprid larvae; [1]): 100%
- Barnacle biofouling (% settlement) (Barnacle cyprid larvae; 0.1 nM Catemine 1 alone (Table 3)): 100%
- Barnacle biofouling (% settlement) (Barnacle cyprid larvae; [2]): 100%
- Barnacle biofouling (% settlement) (Barnacle cyprid larvae; 1 nM Catemine 1 alone): 10%
- Barnacle biofouling (% settlement) (Barnacle cyprid larvae; [3]): 10%
- Barnacle biofouling (% settlement) (Barnacle cyprid larvae; 1 nM Catemine 1 alone (Table 3)): 10%
- Barnacle biofouling (% settlement) (Barnacle cyprid larvae; [4]): 10%
- Barnacle biofouling (% settlement) (Barnacle cyprid larvae; 10 nM Catemine 1 alone): 0%
- Barnacle biofouling (% settlement) (Barnacle cyprid larvae; [5]): 0%
- Barnacle biofouling (% settlement) (Barnacle cyprid larvae; 10 nM Catemine 1 alone (Table 3)): 0%
- Barnacle biofouling (% settlement) (Barnacle cyprid larvae; [6]): 0%
- Barnacle biofouling (% settlement) (Barnacle cyprid larvae; 100 nM Catemine 1 alone): 0%
- Barnacle biofouling (% settlement) (Barnacle cyprid larvae; [7]): 0%
- Barnacle biofouling (% settlement) (Barnacle cyprid larvae; 100 nM Catemine 1 alone (Table 3)): 0%
- Barnacle biofouling (% settlement) (Barnacle cyprid larvae; [8]): 0%
- Enteromorpha biofouling (% survival) (Enteromorpha; 0.1 nM Catemine 1 alone): 100%
- Enteromorpha biofouling (% survival) (Enteromorpha; 1 nM Catemine 1 alone): 100%
- Enteromorpha biofouling (% survival) (Enteromorpha; 10 nM Catemine 1 alone): 100%
- Enteromorpha biofouling (% survival) (Enteromorpha; 100 nM Catemine 1 alone): 100%
- action on barnacle cyprids (barnacle cyprids): specific action
- effect of algal growth (algae): no effect
- Ulva biofouling (% survival) (Ulva; 0.1 nM Catemine 1 alone): 100%
- Ulva biofouling (% survival) (Ulva; [1]): 100%
- Ulva biofouling (% survival) (Ulva; [2]): 100%
- Ulva biofouling (% survival) (Ulva; 1 nM Catemine 1 alone): 100%
- Ulva biofouling (% survival) (Ulva; [3]): 100%
- Ulva biofouling (% survival) (Ulva; [4]): 100%
- Ulva biofouling (% survival) (Ulva; 10 nM Catemine 1 alone): 100%
- Ulva biofouling (% survival) (Ulva; [5]): 100%
- Ulva biofouling (% survival) (Ulva; [6]): 100%
- Ulva biofouling (% survival) (Ulva; 100 nM Catemine 1 alone): 100%
- Ulva biofouling (% survival) (Ulva; [7]): 100%
- Ulva biofouling (% survival) (Ulva; [8]): 100%
